How the values were obtained:
[1] = biological target: JAK2 (Homo sapiens (Human), UniProt O60674); assay: Jak biochemical HTRF assay, JAK2; settings: recombinant purified GST-tagged catalytic domain, HTRF format
Source text: (§1) Jak Biochemical HTRF Assay Protocol
(§2) Subsequent reagent additions employed an Agilent Bravo.

[2] = biological target: JAK1 (Homo sapiens (Human), UniProt P23458); assay: Jak biochemical HTRF assay, JAK1; settings: recombinant purified GST-tagged catalytic domain; HTRF format; [ATP] 31.8 μM
JAK1, sequence (P23458 875-1153): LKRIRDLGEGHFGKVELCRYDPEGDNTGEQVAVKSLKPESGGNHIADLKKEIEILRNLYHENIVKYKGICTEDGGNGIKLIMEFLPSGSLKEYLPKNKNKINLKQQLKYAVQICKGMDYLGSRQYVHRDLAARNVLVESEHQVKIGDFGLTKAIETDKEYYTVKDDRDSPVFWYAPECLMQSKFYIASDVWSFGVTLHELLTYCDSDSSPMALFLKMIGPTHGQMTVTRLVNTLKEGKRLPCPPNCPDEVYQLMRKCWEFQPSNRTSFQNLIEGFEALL
Source text: as §1, §2

JAK2, sequence (O60674 849-1124): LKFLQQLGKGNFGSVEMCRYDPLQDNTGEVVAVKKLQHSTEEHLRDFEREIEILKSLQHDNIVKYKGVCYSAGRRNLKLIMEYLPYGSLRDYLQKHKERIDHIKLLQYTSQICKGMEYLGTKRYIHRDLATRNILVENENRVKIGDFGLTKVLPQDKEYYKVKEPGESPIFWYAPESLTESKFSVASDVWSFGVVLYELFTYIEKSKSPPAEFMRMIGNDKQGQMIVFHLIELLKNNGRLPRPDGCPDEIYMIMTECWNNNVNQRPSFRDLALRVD

| Structure (SMILES) | IC50 ([1]; [ATP] 8.5 μM) [nM] | IC50 [2] [nM] | IC50 ([1]; [ATP] […]) [nM] |
| --- | --- | --- | --- |
| CN1CCC(COC(=O)N2CC[C@@H](n3cc(C(N)=O)c(Nc4ccc(F)cc4)n3)[C@H](C#N)C2)CC1 (racemic) [Example 5-7, (1-methylpiperidin-4-yl)methyl (3R,4R and 3S,4S)-4-{4-carbamoyl-3-[(4-fluorophenyl)amino]-1H-pyrazol-1-yl}-3-cyanopiperidine-1-carboxylate] | 1090 | 23 | – |
| N#C[C@@H]1CN(C(=O)OCCCc2ccccc2)CC[C@H]1n1cc(C(N)=O)c(Nc2ccc(F)cc2)n1 (racemic) [Example 5-3, 3-phenylpropyl (3R,4R and 3S,4S)-4-{4-carbamoyl-3-[(4-fluorophenyl)amino]-1H-pyrazol-1-yl}-3-cyanopiperidine-1-carboxylate] | 1010 | 44 | – |
| CC(OC(=O)N1CC[C@H](n2cc(C(N)=O)c(Nc3ccc(F)cc3)n2)[C@H](C#N)C1)C(F)(F)F (mixture of isomers) [Example 5-43, 2,2,2-trifluoro-1-methylethyl (3R,4S and 3S,4R)-4-{4-carbamoyl-3-[(4-fluorophenyl)amino]-1H-pyrazol-1-yl}-3-cyanopiperidine-1-carboxylate] | > 1500 | 188 | – |
| CC(C)(C)OC(=O)N1CC[C@@H](n2cc(C(N)=O)c(Nc3ccccc3)n2)[C@H](C#N)C1 (mixture of isomers) [Example 1-2, tert-butyl(3S,4S and 3R,4R)-4-[4-(aminocarbonyl)-3-anilino-1H-pyrazol-1-yl]-3-cyanopiperidine-1-carboxylate] | – | 24 | 496 |
| CC(OC(=O)N1CC[C@@H](C#N)C(n2cc(C(N)=O)c(Nc3ccc(F)cc3)n2)C1)C(F)(F)F (mixture of isomers) [Example 5-70, 2,2,2-trifluoro-1-methylethyl (3S,4R and 3R,4S)-3-{4-carbamoyl-3-[(4-fluorophenyl)amino]-1H-pyrazol-1-yl}-4-cyanopiperidine-1-carboxylate] | 135 | 8 | – |
| COCCOC(=O)N1CC[C@H](n2cc(C(N)=O)c(Nc3ccc(F)cc3)n2)[C@H](C#N)C1 (racemic) [Example 5-54, 2-methoxyethyl (3R,4S and 3S,4R)-4-{4-carbamoyl-3-[(4-fluorophenyl)amino]-1H-pyrazol-1-yl}-3-cyanopiperidine-1-carboxylate] | > 1500 | 529 | – |
| CC(OC(=O)N1CC[C@@H](n2cc(C(N)=O)c(Nc3ccc(F)cc3)n2)[C@H](C#N)C1)C(F)(F)F (mixture of isomers) [Example 5-1, 2,2,2-Trifluoro-1-methylethyl(3R,4R and 3S,4S)-4-{4-carbamoyl-3-[(4-fluorophenyl)amino]-1H-pyrazol-1-yl}-3-cyanopiperidine-1-carboxylate] | 387 | 15 | – |
| N#C[C@@H]1CN(C(=O)OCCN2CCCC2)CC[C@H]1n1cc(C(N)=O)c(Nc2ccc(F)cc2)n1 (racemic) [Example 5-19, 2-pyrrolidin-1-ylethyl (3R,4R and 3S,4S)-4-{4-carbamoyl-3-[(4-fluorophenyl)amino]-1H-pyrazol-1-yl}-3-cyanopiperidine-1-carboxylate] | 1100 | 22 | – |
| N#C[C@@H]1CN(C(=O)OCC(F)(F)CO)CC[C@H]1n1cc(C(N)=O)c(Nc2ccc(F)cc2)n1 (racemic) [Example 5-20, 2,2-difluoro-3-hydroxypropyl (3R,4R and 3S,4S)-4-{4-carbamoyl-3-[(4-fluorophenyl)amino]-1H-pyrazol-1-yl}-3-cyanopiperidine-1-carboxylate] | 106 | 5 | – |
| N#C[C@@H]1CN(C(=O)OCCc2ccccc2)CC[C@@H]1n1cc(C(N)=O)c(Nc2ccc(F)cc2)n1 (racemic) [Example 5-48, 2-phenylethyl (3R,4S and 3S,4R)-4-{4-carbamoyl-3-[(4-fluorophenyl)amino]-1H-pyrazol-1-yl}-3-cyanopiperidine-1-carboxylate] | > 1500 | 403 | – |

Continued, values first:

| IC50 ([1]; [ATP] 8.5 μM) [nM] | IC50 [2] [nM] | IC50 ([1]; [ATP] […]) [nM] | Structure (SMILES) |
| --- | --- | --- | --- |
| 52 | 7 | – | N#C[C@H]1CCOC[C@@H]1n1cc(C(N)=O)c(Nc2ccc(OC(F)(F)F)cc2)n1 (single isomer, unassigned) [Example 9-20, 1-[(3R,4S or 3S,4R)-4-cyanotetrahydro-2H-pyran-3-yl]-3-{[4-(trifluoromethoxy)phenyl]amino}-1H-pyrazole-4-carboxamide] |
| – | 5 | 25 | C[C@@H]1C[C@H](C#N)[C@@H](n2cc(C(N)=O)c(Nc3ccnc(F)c3)n2)CO1 (mixture of isomers) [Example 10-1, 1-((3R,4S,6R and 3S,4R,6S)-4-Cyano-6-methyltetrahydro-2H-pyran-3-yl)-3-((2-fluoropyridin-4-yl)amino)-1H-pyrazole-4-carboxamide] |
| 42 | 4 | – | Cc1cc(CN2CC[C@@H](C#N)[C@H](n3cc(C(N)=O)c(Nc4ccc(F)cc4)n3)C2)no1 (racemic) [Example 6-14, 1-{(3S,4R and 3R,4S)-4-cyano-1-[(5-methylisoxazol-3-yl)methyl]piperidin-3-yl}-3-[(4-fluorophenyl)amino]-1H-pyrazole-4-carboxamide] |
| – | 29 | 206 | C[C@H]1OCC[C@@H](C#N)[C@@H]1n1cc(C(N)=O)c(Nc2ccnc(F)c2)n1 (mixture of isomers) [Example 10-2, 1-((2S,3R,4S and 2R,3S,4R)-4-cyano-2-methyltetrahydro-2H-pyran-3-yl)-3-((2-fluoropyridin-4-yl)amino)-1H-pyrazole-4-carboxamide] |
| 34 | 3 | – | N#C[C@@H]1CN(Cc2ccon2)CC[C@H]1n1cc(C(N)=O)c(Nc2ccc(F)cc2)n1 (racemic) [Example 6-24, 1-[(3R,4R and 3S,4S)-3-cyano-1-(isoxazol-3-ylmethyl)piperidin-4-yl]-3-[(4-fluorophenyl)amino]-1H-pyrazole-4-carboxamide] |
| 3 | 0.6 | – | N#C[C@H]1CCOC[C@@H]1n1cc(C(N)=O)c(Nc2ccc(OCC(F)(F)F)nc2)n1 (single isomer, unassigned) [Example 9-36, 1-[(3R,4S or 3S,4R)-4-cyanotetrahydro-2H-pyran-3-yl]-3-{[6-(2,2,2-trifluoroethoxy)pyridin-3-yl]amino}-1H-pyrazole-4-carboxamide] |
| 7 | 0.9 | – | N#C[C@@H]1CCOC[C@H]1n1cc(C(N)=O)c(Nc2cncc(F)c2)n1 (single isomer, unassigned) [Example 9-31, 1-[(3S,4R or 3R,4S)-4-cyanotetrahydro-2H-pyran-3-yl]-3-[(5-fluoropyridin-3-yl)amino]-1H-pyrazole-4-carboxamide] |
| 533 | 25 | – | CC(C)(O)C1CC(CN2CC[C@@H](C#N)[C@H](n3cc(C(N)=O)c(Nc4ccc(F)cc4)n3)C2)C1 (mixture of isomers) [Example 6-11, 1-[(3S,4R and 3R,4S)-4-cyano-1-{[3-(1-hydroxy-1-methylethyl)cyclobutyl]methyl}piperidin-3-yl]-3-[(4-fluorophenyl)amino]-1H-pyrazole-4-carboxamide] |
| 111 | 10 | – | Cc1c(CN2CC[C@@H](n3cc(C(N)=O)c(Nc4ccc(F)cc4)n3)[C@H](C#N)C2)cnn1C (racemic) [Example 6-34, 1-{(3R,4R and 3S,4S)-3-cyano-1-[(1,5-dimethyl-1H-pyrazol-4-yl)methyl]piperidin-4-yl}-3-[(4-fluorophenyl)amino]-1H-pyrazole-4-carboxamide] |
| 306 | 83 | – | N#C[C@H]1CCOC[C@@H]1n1cc(C(N)=O)c(Nc2cncc(F)c2)n1 (single isomer, unassigned) [Example 9-30, 1-[(3R,4S or 3S,4R)-4-cyanotetrahydro-2H-pyran-3-yl]-3-[(5-fluoropyridin-3-yl)amino]-1H-pyrazole-4-carboxamide] |
| 220 | 19 | – | N#C[C@@H]1CN(Cc2cccnn2)CC[C@H]1n1cc(C(N)=O)c(Nc2ccc(F)cc2)n1 (racemic) [Example 6-22, 1-[(3R,4R and 3S,4S)-3-cyano-1-(pyridazin-3-ylmethyl)piperidin-4-yl]-3-[(4-fluorophenyl)amino]-1H-pyrazole-4-carboxamide] |
| 92 | 7 | – | Cc1cc(CN2CC[C@@H](n3cc(C(N)=O)c(Nc4ccc(F)cc4)n3)[C@H](C#N)C2)no1 (racemic) [Example 6-33, 1-{(3R,4R and 3S,4S)-3-cyano-1-[(5-methylisoxazol-3-yl)methyl]piperidin-4-yl}-3-[(4-fluorophenyl)amino]-1H-pyrazole-4-carboxamide] |
| – | 0.07 | 0.7 | N#Cc1ccc(Nc2nn([C@H]3COCC[C@@H]3C#N)cc2C(N)=O)cc1 (single isomer, unassigned) [Example 9-35, 3-[(4-cyanophenyl)amino]-1-[(3R, 4S or 3S,4R)-4-cyanotetrahydro-2H-pyran-3-yl]-1H-pyrazole-4-carboxamide] |
| 20 | 2 | – | Cn1nccc1CN1CC[C@@H](C#N)[C@H](n2cc(C(N)=O)c(Nc3ccc(F)cc3)n2)C1 (racemic) [Example 6-13, 1-{(3S,4R and 3R,4S)-4-cyano-1-[(1-methyl-1H-pyrazol-5-yl)methyl]piperidin-3-yl}-3-[(4-fluorophenyl)amino]-1H-pyrazole-4-carboxamide] |
| 14 | 2 | – | Cn1ccc(CN2CC[C@@H](C#N)[C@H](n3cc(C(N)=O)c(Nc4ccc(F)cc4)n3)C2)n1 (racemic) [Example 6-5, 1-{(3S,4R and 3R,4S)-4-cyano-1-[(1-methyl-1H-pyrazol-3-yl)methyl]piperidin-3-yl}-3-[(4-fluorophenyl)amino]-1H-pyrazole-4-carboxamide] |
| – | 5 | 66 | N#C[C@@H]1CN(CC2CCC2)CC[C@H]1n1cc(C(N)=O)c(Nc2ccc(F)cc2)n1 [Example 6-40, 1-[(3R,4R)-3-cyano-1-(cyclobutylmethyl)piperidin-4-yl]-3-[(4-fluorophenyl)amino]-1H-pyrazole-4-carboxamide] |
